How the values were obtained:
Experiment in all cases: Competitive isoTOP-ABPP in situ (fragment-treated cells)
Assay type in all cases: cell-based
[1] = molecular target: T1, cysteines in MDA-MB-231 and Ramos cells (Homo sapiens, UniProt P22307)
T1 sequence (P22307 1-547): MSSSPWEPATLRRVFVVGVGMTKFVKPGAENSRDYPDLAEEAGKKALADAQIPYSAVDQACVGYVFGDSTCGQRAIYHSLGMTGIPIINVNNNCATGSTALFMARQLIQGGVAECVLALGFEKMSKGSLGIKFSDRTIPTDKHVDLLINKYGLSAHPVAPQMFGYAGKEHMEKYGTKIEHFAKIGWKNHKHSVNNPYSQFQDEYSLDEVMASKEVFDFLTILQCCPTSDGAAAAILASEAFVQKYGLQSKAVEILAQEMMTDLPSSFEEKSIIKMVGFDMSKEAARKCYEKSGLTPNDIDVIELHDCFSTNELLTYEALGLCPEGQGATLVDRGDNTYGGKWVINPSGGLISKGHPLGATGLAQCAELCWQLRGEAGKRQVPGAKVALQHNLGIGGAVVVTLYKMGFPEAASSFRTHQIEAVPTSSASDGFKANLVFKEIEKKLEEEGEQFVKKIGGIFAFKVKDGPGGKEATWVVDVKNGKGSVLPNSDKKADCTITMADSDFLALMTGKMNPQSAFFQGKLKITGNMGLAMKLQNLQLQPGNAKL

[2] = molecular target: T2, cysteines in MDA-MB-231 and Ramos cells (Homo sapiens, UniProt O95229)
T2 sequence (O95229 1-277): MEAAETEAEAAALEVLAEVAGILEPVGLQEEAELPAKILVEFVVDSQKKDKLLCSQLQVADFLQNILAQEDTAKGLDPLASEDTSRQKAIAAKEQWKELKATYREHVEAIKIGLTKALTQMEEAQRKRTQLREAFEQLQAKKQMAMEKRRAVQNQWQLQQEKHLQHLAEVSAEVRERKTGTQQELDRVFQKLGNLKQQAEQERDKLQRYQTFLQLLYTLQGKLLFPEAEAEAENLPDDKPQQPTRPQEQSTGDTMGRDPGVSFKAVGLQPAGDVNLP

[3] = molecular target: T3, cysteines in MDA-MB-231 and Ramos cells (Homo sapiens, UniProt Q96CM8)
T3 sequence (Q96CM8 42-615): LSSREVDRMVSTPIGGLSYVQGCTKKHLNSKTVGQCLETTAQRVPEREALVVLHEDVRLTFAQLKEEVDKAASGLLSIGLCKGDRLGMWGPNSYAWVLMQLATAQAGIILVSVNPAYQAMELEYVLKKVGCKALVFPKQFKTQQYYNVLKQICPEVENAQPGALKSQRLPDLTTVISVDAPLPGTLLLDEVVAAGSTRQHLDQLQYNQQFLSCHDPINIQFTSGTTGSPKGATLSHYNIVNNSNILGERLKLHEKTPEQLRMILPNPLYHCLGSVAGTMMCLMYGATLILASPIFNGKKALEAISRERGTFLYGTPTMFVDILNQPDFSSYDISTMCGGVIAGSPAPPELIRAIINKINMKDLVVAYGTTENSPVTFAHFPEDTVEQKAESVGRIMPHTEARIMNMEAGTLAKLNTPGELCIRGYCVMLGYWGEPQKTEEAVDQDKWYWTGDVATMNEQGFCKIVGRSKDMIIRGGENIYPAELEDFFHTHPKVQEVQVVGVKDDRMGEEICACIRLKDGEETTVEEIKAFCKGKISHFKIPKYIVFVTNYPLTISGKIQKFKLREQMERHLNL

[4] = molecular target: T4, cysteines in MDA-MB-231 and Ramos cells (Homo sapiens, UniProt Q9ULW0)
T4 sequence (Q9ULW0 1-747): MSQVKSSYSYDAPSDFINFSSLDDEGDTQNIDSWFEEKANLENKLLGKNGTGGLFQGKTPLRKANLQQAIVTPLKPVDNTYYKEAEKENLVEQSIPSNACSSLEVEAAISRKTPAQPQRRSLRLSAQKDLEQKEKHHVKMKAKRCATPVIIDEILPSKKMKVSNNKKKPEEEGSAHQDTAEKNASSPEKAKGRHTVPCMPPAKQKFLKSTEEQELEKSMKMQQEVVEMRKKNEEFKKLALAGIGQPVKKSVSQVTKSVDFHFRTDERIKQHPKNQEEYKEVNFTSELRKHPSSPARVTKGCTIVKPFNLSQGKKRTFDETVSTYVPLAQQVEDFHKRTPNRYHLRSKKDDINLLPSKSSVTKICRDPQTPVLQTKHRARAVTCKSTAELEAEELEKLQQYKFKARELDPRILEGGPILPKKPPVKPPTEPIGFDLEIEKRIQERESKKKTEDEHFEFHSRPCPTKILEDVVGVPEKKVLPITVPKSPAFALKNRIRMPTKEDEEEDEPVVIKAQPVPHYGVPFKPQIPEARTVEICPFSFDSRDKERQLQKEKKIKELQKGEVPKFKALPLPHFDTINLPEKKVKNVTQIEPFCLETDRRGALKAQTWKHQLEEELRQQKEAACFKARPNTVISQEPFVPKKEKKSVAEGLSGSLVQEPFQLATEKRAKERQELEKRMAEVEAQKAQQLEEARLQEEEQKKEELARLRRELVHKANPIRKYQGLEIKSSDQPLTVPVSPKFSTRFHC

[5] = molecular target: T5, cysteines in MDA-MB-231 and Ramos cells (Homo sapiens, UniProt Q9BTA9)
T5 sequence (Q9BTA9 1-647): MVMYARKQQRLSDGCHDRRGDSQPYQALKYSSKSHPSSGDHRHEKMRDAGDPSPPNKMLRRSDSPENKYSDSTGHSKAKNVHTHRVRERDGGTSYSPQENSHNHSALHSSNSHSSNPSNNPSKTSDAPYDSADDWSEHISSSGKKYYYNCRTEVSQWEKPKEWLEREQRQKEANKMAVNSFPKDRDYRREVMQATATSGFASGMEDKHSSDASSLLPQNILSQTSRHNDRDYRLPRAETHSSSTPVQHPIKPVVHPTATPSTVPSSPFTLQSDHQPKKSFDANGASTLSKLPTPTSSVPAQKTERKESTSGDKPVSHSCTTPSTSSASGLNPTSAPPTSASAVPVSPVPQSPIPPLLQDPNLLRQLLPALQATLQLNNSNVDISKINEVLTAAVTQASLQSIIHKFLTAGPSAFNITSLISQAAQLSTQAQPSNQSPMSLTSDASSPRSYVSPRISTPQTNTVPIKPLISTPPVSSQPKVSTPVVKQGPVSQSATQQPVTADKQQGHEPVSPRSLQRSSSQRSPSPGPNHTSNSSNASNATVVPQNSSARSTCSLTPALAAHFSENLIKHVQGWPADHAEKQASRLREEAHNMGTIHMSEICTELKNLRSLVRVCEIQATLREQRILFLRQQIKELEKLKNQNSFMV

Compound | isoTOP-ABPP ratio P22307_C71 ([1]; 200 μM, insitu, 231) | isoTOP-ABPP ratio O95229_C54 ([2]; 200 μM, insitu, 231) | isoTOP-ABPP ratio Q96CM8_C64 ([3]; 200 μM, insitu, 231) | isoTOP-ABPP ratio Q9ULW0_C536 ([4]; 200 μM, insitu, 231) | isoTOP-ABPP ratio Q9BTA9_C553 ([5]; 200 μM, insitu, 231) | also measured
CC(C)CCOCCNC(=O)CCl [compound 27] | 20.0 | 0.5 | 1.8 | 1.1 |  | 
COc1cc2c(cc1OC)CN(C(=O)CCl)CC2 [compound 8] |  |  |  |  |  | isoTOP-ABPP reactivity P22307_C71 SCP2 ([1]; 200 μM, insitu, 231): 20.0; isoTOP-ABPP reactivity P22307_C307 SCP2 ([1]; 200 μM, insitu, 231): 20.0; isoTOP-ABPP reactivity Q9BTA9_0553 WAC ([5]; 200 μM, insitu, 231): 9.6; isoTOP-ABPP reactivity O95229_C54 ZWINT ([2]; 200 μM, insitu, 231): 3.1; isoTOP-ABPP reactivity Q96CM8_C64 ACSF2 ([3]; 200 μM, insitu, 231): 20.0; isoTOP-ABPP reactivity Q9ULW0_C536 TPX2 ([4]; 200 μM, insitu, 231): 20.0
COc1ccc(C2CC(c3cccs3)=NN2C(=O)CCl)cc1 (stereo not drawn) [compound 4] |  |  |  |  |  | isoTOP-ABPP reactivity P22307_C71 SCP2 ([1]; 100 μM in situ 231): 2.7; isoTOP-ABPP reactivity P22307_C94 SCP2 ([1]; 100 μM in situ 231): 20.0; isoTOP-ABPP reactivity P22307_C307 SCP2 ([1]; 100 μM in situ 231): 20.0; isoTOP-ABPP reactivity Q9BTA9_0553 WAC ([5]; 100 μM in situ 231): 17.8; isoTOP-ABPP reactivity O95229_C54 ZWINT ([2]; 100 μM in situ 231): 12.4; isoTOP-ABPP reactivity Q96CM8_C64 ACSF2 ([3]; 100 μM in situ 231): 20.0; isoTOP-ABPP reactivity Q9ULW0_C536 TPX2 ([4]; 100 μM in situ 231): 20.0
O=C(CCl)Nc1cccc2ncccc12 [compound 51] | 5.6 | 1.0 |  | 1.4 | 1.2 | 
COc1ccccc1OCCNC(=O)CCl [compound 28] |  | 0.7 |  | 1.0 |  | isoTOP-ABPP ratio P22307_C94 ([1]; 200 μM, insitu, 231): 20.0
O=C(CCl)N1CCN(S(=O)(=O)c2ccccc2F)CC1 [compound 10] | 8.3 | 2.3 | 20.0 | 17.6 | 20.0 | 
CC1CCc2ccccc2N1C(=O)CCl (stereo not drawn) [compound 45] | 16.8 |  | 20.0 | 20.0 | 19.1 | isoTOP-ABPP ratio P22307_C94 ([1]; 200 μM, insitu, 231): 20.0
Cc1ccc(C=C(C#N)C(=O)NCCN2CCOCC2)cc1 [compound 41] | 1.2 | 0.6 | 0.8 | 1.2 | 1.0 | isoTOP-ABPP ratio P22307_C307 ([1]; 200 μM, insitu, 231): 1.1
COc1ccc2c(c1)CCCN2C(=O)CCl [compound 2] |  |  |  |  |  | isoTOP-ABPP reactivity P22307_C71 SCP2 ([1]; 200 μM, insitu, 231): 3.2; isoTOP-ABPP reactivity P22307_C307 SCP2 ([1]; 200 μM, insitu, 231): 20.0; isoTOP-ABPP reactivity Q9BTA9_0553 WAC ([5]; 200 μM, insitu, 231): 17.6; isoTOP-ABPP reactivity O95229_C54 ZWINT ([2]; 200 μM, insitu, 231): 3.4; isoTOP-ABPP reactivity Q96CM8_C64 ACSF2 ([3]; 200 μM, insitu, 231): 20.0; isoTOP-ABPP reactivity Q9ULW0_C536 TPX2 ([4]; 200 μM, insitu, 231): 20.0
C=CC(=O)Nc1cc(F)c(N2CCN(C(=O)OC(C)(C)C)CC2)c(F)c1 [compound 38] |  |  | 1.1 | 1.2 | 1.1 | 
O=C(CCl)NC(=O)NC12CC3CC(CC(C3)C1)C2 [compound 12] | 3.7 | 20.0 | 17.9 | 20.0 |  | isoTOP-ABPP ratio, cysteine P22307_C94 ([1]; 200 μM, insitu, 231): 20.0; isoTOP-ABPP ratio, cysteine P22307_C307 ([1]; 200 μM, insitu, 231): 20.0
C=CC(=O)N(Cc1cccnc1)c1cc(C(F)(F)F)cc(C(F)(F)F)c1 [compound 31] |  |  | 0.8 |  |  | 
Cn1cc(S(=O)(=O)N2CCOCC2)cc1C(=O)NC(=O)CCl [compound 11] |  |  |  |  |  | isoTOP-ABPP ratio P22307_C71 ([1]; 100 μM in situ 231): 2.0; isoTOP-ABPP ratio, cysteine P22307_C94 ([1]; 100 μM in situ 231): 3.3; isoTOP-ABPP ratio, cysteine P22307_C307 ([1]; 100 μM in situ 231): 2.9; isoTOP-ABPP ratio Q9BTA9_C553 ([5]; 100 μM in situ 231): 1.7; isoTOP-ABPP ratio O95229_C54 ([2]; 100 μM in situ 231): 1.2; isoTOP-ABPP ratio Q96CM8_C64 ([3]; 100 μM in situ 231): 1.5; isoTOP-ABPP ratio Q9ULW0_C536 ([4]; 100 μM in situ 231): 1.4
O=C(CCl)NCCc1c[nH]c2ccccc12 [compound 13] | 4.9 | 0.8 | 1.4 | 1.5 | 1.4 | isoTOP-ABPP ratio O95229_C54 ([2]; 200 μM, insitu, ramos): 1.4
O=C(CCl)N1CCN(CC(=O)N2CCOCC2)CC1 [compound 29] |  |  |  |  |  | isoTOP-ABPP ratio Q9BTA9_C553 ([5]; 200 μM, insitu, ramos): 1.1; isoTOP-ABPP ratio O95229_C54 ([2]; 200 μM, insitu, ramos): 1.2; isoTOP-ABPP ratio Q96CM8_C64 ([3]; 200 μM, insitu, ramos): 2.3; isoTOP-ABPP ratio Q9ULW0_C536 ([4]; 200 μM, insitu, ramos): 1.8
O=C(CCl)NC12CC3CC(CC(C3)C1)C2 [compound 21] | 8.3 | 0.8 | 2.0 | 0.9 | 2.8 | isoTOP-ABPP ratio, cysteine P22307_C307 ([1]; 200 μM, insitu, 231): 20.0
O=C(CCl)N1CCC(Cc2ccccc2)CC1 [compound 9] |  |  |  |  |  | isoTOP-ABPP reactivity O95229_C54 ZWINT ([2]; 200 μM, insitu, 231): 3.7; isoTOP-ABPP reactivity Q9ULW0_C536 TPX2 ([4]; 200 μM, insitu, 231): 5.7

Source: patent US10670605B2, “Cysteine reactive probes and uses thereof” (The Scripps Research Institute, priority 2015, dated 2020)
